Experimental data from PMC12216609, “Inhibitors of eIF1A-ribosome interaction unveil uORF-dependent regulation of translation initiation and antitumor and antiviral effects” (The EMBO Journal, 2025).
“And” between values parts separate entries of the source, which are not always exact repeats. Equal values may be shown once. Read-outs that look alike come from different tables or passages of the source.

Columns and labels:
RPS10 = target: T1, RPS10 (Homo sapiens, UniProt P46783); type: binding
T1 construct: made in house; host or cells: E. coli BL-21

[1] = tested on: CUG/GUG vs AUG start codon luciferase reporters in HEK293T cells; test: Near-cognate AUG starting codon fidelity reporter assay (GUG, CUG vs AUG); type: cell-based
[2] = tested on: cap-proximal AUG GFP reporter in HEK293T cells; type: cell-based; conditions: GFP WB densitometry; 20 µM overnight; dmso 0.965946;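 further: ratio of upstream to downstream AUG initiation products on GFP Western blot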
[3] = tested on: IRF7 5'UTR firefly luciferase reporter in HEK293T cells;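 further: luciferase signal corrected by a co-transfected GFP reporter for transfection efficiency, read after overnight compound exposure, with Long and Short reporters differing in 5'UTR length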
Procedure: For the effect on ribosomal scanning, we used two firefly luciferase reporter genes that differ in their 5'UTR length (Fig. 1C). […] Cells were transfected with these reporters along with a GFP reporter gene used to normalize transfection efficiency. After an overnight 1Ai or DMSO (vehicle control) exposure, luciferase and GFP expression were measured, and normalized activity was determined.
For the reference vs IRF7 5'UTR luciferase reporter assay, HEK239T cells in a 12-well plate were transfected with the previously described IRF7 5'UTR or reference firefly luciferase reported genes (Sehrawat et al, [2019]) (100 ng/well) together with GFP (20 ng/well) that served as an internal control by CaCl2 transfection. After 6 h, half of the growth medium was replaced with a medium containing the different compounds, reaching a final concentration of 20 µM. Twenty-four hours after transfection, transfection efficiency was evaluated using GFP fluorescence intensity (Cytation 5, ex/em: 470/525). Cells were harvested in 50 µL Reported lysis buffer (RLB) and put on a shaker for 10 min. From each well 5 µL were taken in duplicates and tested by luminometer.

## Cc1ccc(C(=O)c2cc(O)c(O)c([N+](=O)[O-])c2)cc1 [1Ai-5576]
RPS10; 1Ai conc. 0.25 uM
  RPS10 fluorescence ratio to control: 1.2176
RPS10; 1Ai conc. 0.5 uM
  RPS10 fluorescence ratio to control: 1.045
RPS10; 1Ai conc. 1 uM
  RPS10 fluorescence ratio to control: 1.349
RPS10; 1Ai conc. 2 uM
  RPS10 fluorescence ratio to control: 1.319
RPS10; 1Ai conc. 4 uM
  RPS10 fluorescence ratio to control: 1.348
RPS10; 1Ai conc. 8 uM
  RPS10 fluorescence ratio to control: 0.4488
RPS10; 1Ai conc. 16 uM
  RPS10 fluorescence ratio to control: 0.3698
RPS10; 1Ai conc. 32 uM
  RPS10 fluorescence ratio to control: 0.4065
RPS10; 1Ai conc. 64 uM
  RPS10 fluorescence ratio to control: 0.1627
RPS10; 1Ai conc. 256 uM
  RPS10 fluorescence ratio to control: 0.3279
RPS10; read-out: IC50 (line under RPS10 binding data)
  IC50: 7.4 µM
RPS10; read-out: RPS10 IC50
  IC50: 7.4 µM
RPS10; summary table, fluorescence binding assay, read-out: IC50 concentration (µM), RPS10
  IC50: 7.4 µM
[1]; CUG start codon reporter relative to AUG reporter (AUG = 100), compound at 20uM (summary head), single-experiment calculation
  CUG vs AUG (%): 5.985%
[1]; GUG start codon reporter relative to AUG reporter (AUG = 100), compound at 20uM (summary head), single-experiment calculation
  GUG vs AUG (%): 2.005%
[1]; NUG experiment
  average CUG and GUG: 6.465
  average CUG and GUG relative to DMSO: 1.433
[1]; NUG experiment, CUG vs AUG reporter
  CUG Average: 9.471
[1]; NUG experiment, GUG vs AUG reporter
  GUG Average: 3.46
[1]; average CUG and GUG relative to DMSO, 20 µM overnight
  NUG (Final data, Fig. 1E): 1.433
[1]; compound at 20uM, individual repeat
  GUG vs AUG data (%): 2.91% and 4.78% and 2.69%
[1]; compound at 20uM, summary average of repeats, DMSO control average […]
  GUG vs AUG (%) Average: 3.46%
[2]
  US/DS ratio, average: 0.8188
[3]; 1/Result, relative to DMSO, 20 µM
  Reference vs IRF7 (Final data, Fig. 1E): 1.896
[3]; Long reporter, 20 µM, individual replicates, outliers excluded, DMSO = 1
  LONG (summary - All), normalized to DMSO: 0.11 and 0.20 and 0.17
[3]; Short reporter, 20 µM, individual replicates, outliers excluded, DMSO = 1
  SHORT (summary - All), normalized to DMSO: 0.23 and 0.53 and 0.25 and 0.22
[3]; compound at 20 µM, left data block (Long), source data of Fig 1C
  Long 5'UTR reporter luciferase activity, normalized to DMSO (=1), single replicates: 0.1126 and 0.2 and 0.1668 and 0.166
[3]; summary - All, 20 µM
  average ( long vs short ratio): 0.527
